According to patent publication US20090069324A1, “CHEMICAL INHIBITORS OF BFL-1 AND RELATED METHODS” (The Burnham Institute, priority 2007, published 2009):

Assays:
Bcl-2 = target: T1, Bcl-2 (Homo sapiens, UniProt P10415); assay: Bcl-2/FITC-Bim FPA selectivity assay; type: binding; conditions: Bcl-2/FITC-Bim complex
T1 construct: lacking their C-terminal transmembrane domains (approximately last 20 amino-acids); GST (N); made in house; host or cells: XL-1 Blue cells (E. coli), pGEX 4T-1
From the text: This example illustrates assays for determining the selectivity of chemical inhibitors for Bfl-1. Bfl-1, as with other Bcl-2 family proteins, participates in a very complex and intricate network of interactions with other representatives of the family. Therefore, two selectivity assays involving family members Bcl-2 and Bcl-B were developed.
For Bcl-2, a FITC-conjugated peptide corresponding to the BH3 domain of Bim was used. For Bcl-B, a FITC-conjugated peptide corresponding to a fragment of the TR3/Nur77 protein shown to bind this member of the Bcl-2 family was used.
Probe specificity for target or for cell-based/phenotypic assays data can be determined in orthogonal cell-based assay systems that address the pathway of interest. For example, compounds were tested in Bfl-1/FITC-Bid FPA and TR-FRET assays (FIGS. 7A and 7B, respectively), as well as Bcl-2/FITC-Bim FPA (FIG. 7C) and Bcl-B/FITC-TR3-R8 FPA (FIG. 7D) assays. Data represent concentration in μM x-axis) vs % displacement (y-axis).

Plasma stability = type: in vitro ADME; conditions: fresh rat plasma, 37.5° C.
Protocol: CID-779754 (MLS-0067130) has a metabolic half life of >60 min in the presence of rat liver microsomes when incubated at 37.5° C. (FIG. 6A), with 64% of the compound remaining at 1 hour. The plasma stability of CID-779754 is also good, with 79% remaining after incubating at 37.5° C. for 1 hour in fresh rat plasma (FIG. 6B).

PAMPA assay = type: in vitro ADME
human mast cells = assay: Primary mast cell survival assay (activation-induced survival); type: cell-based
Protocol: To validate the biological activity of the probe in a cellular readout that is Bfl-1 dependent, CID-779754 was tested in an assay measuring the effect of compounds on primary mast cell survival.
The effect of a Bfl-1 inhibitor at, for example, 1 μM is tested on CBMCs derived from, for example, 12 different individuals. CBMCs are activated by aggregation of the high-affinity IgE-receptor (FcεRI)±CID-779754. Mast cells are cultured with or without IgE crosslinking (IgECL) agent, without or with Bfl-1 inhibitor. The percentage cell survival upon IgE-receptor activation are compared to cells not activated and the delta survival is calculated. Cell survival is measured by LDH release and data were presented as % difference between cells cultured with or without IgECL.

T1 sequence (P10415 1-218 limits assumed): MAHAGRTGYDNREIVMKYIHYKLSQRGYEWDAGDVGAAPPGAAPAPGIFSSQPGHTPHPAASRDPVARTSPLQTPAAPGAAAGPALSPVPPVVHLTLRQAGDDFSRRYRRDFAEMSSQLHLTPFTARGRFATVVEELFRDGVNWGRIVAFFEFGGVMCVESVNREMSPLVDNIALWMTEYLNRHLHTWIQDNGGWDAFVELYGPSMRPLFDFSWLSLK

SMILES: CN(C)C1=C(Cl)C(=O)N(c2ccc(Cl)c(Cl)c2)C1=O [CID-779754, 3-chloro-1-(3,4-dichlorophenyl)-4-(dimethylamino)-1H-pyrrole-2,5-dione]
- Competition for binding of a BH3 peptide to Bcl-2, in words (Bcl-2): weak activity
- remaining after incubating for 1 hour (Plasma stability): 79%
- log Pe (PAMPA assay; PAMPA): −4.2
- predicted human GI absorption (PAMPA assay; correlated from PAMPA log Pe): > 50%
- effect on activation-induced survival of mast cells (human mast cells): inhibited the activation-induced survival of human mast cells
